pIC50: −log10 of the molar value.
target: T1, CA (Human immunodeficiency virus type 1 group M subtype B, UniProt P12493); assay: ALPHA screen (AlphaScreen): inhibition of CAI binding to CA; parameters: species or system HIV-1; settings: CAI-biotin peptide / CA-GST; compounds screened at 0.5-100 µM; read-out: α screen IC50
T1 construct: a fusion protein of CA with glutathione-S-transferase (CA-GST)
Method: The AlphaScreen experiments are performed using Perkin Elmer Enspire plate reader in white 96-well ProxiPlates and PBS supplemented with 0.05% Tween20, 2mM DTT, 2% DMSO. First, Streptavidin-coated Donor beads are used to capture the CAI-biotin peptide. In the other solution, a fusion protein of CA with glutathione-S-transferase (CA-GST) is mixed with GSH Acceptor beads. Both mixtures were incubated and then mixed together. To test the ability of prepared organic compounds to inhibit the CAI binding to CA, they are screened at concentrations between 0.5-100 µM and IC50 values are calculated from the influenced signals.
Upon illumination by laser at 680 nm, Donor beads containing the photosensitizer phthalocyanine convert ambient oxygen to an excited form of singlet oxygen ^1O2. Singlet oxygen can within its half-life of ~ 4 µs diffuse approximately 200 nm in solution. If an Acceptor bead is within that proximity, which is mostly upon CA:CAI interaction, energy is transferred from the singlet oxygen to thioxene derivates within the Acceptor and signal at 520 - 620 nm is emitted.

Going from `Cc1ccc(Nc2nc(-c3cccnc3)nc3ccccc23)c(O)c1` [AMR.484] to `Cc1ccc(Nc2nc(-c3ccncc3)nc3ccccc23)c(O)c1` [AMR.457], the pIC50 falls from 3.75 to < 3.70. The first is the more potent here.

First: CN(C)c1cccc(Nc2nc(-c3ccc(Cl)cc3)nc3ccccc23)c1 [AMR.380]
Second: CN(C)c1ccc(Nc2nc(-c3ccc(Cl)cc3)nc3ccccc23)cc1 [AMR.368]
The pIC50 of the first is 0.67 log units lower: 3.80 for the first, 4.47 for the second.

`Cc1ccc(S(=O)(=O)NNc2nc(-c3cccnc3)nc3ccccc23)cc1` [AMR.336] and `Cc1ccc(S(=O)(=O)NNc2nc(-c3ccncc3)nc3ccccc23)cc1` [AMR.356] are within 0.2 log units of each other in pIC50: 3.93 for the first, 3.81 for the second.

Compared with `O=[N+]([O-])c1ccc(F)c(Nc2ncnc3ccccc23)c1` [AMR.475], `O=[N+]([O-])c1ccc(F)c(Nc2nc(-c3ccccn3)nc3ccccc23)c1` [AMR.416] is higher in pIC50: < 3.70 for the first, 5.64 for the second. The second is the more potent here.

First: O=[N+]([O-])c1cc(F)ccc1Nc1nc(-c2cccnc2)nc2ccccc12 [AMR.426]
Second: O=[N+]([O-])c1cc(F)ccc1Nc1nc(-c2ccncc2)nc2ccccc12 [AMR.450]
The pIC50 of the first is 1.07 log units higher: 4.84 for the first, 3.77 for the second.

First: CN(C)c1ccc(-c2nc(Nc3ccc4c(c3)nnn4C)c3ccccc3n2)cc1 [AMR.512]
Second: CN(C)c1cccc(-c2nc(Nc3ccc4c(c3)nnn4C)c3ccccc3n2)c1 [AMR.509]
The pIC50 of the first is higher: 4.51 for the first, < 3.70 for the second.

`O=[N+]([O-])c1ccc(F)c(Nc2nc(-c3ccncc3)nc3ccccc23)c1` [AMR.348] and `O=[N+]([O-])c1ccc(O)c(Nc2nc(-c3ccncc3)nc3ccccc23)c1` [AMR.456] are within 0.2 log units of each other in pIC50: 5.14 for the first, 4.99 for the second.

`Fc1ccc(Nc2nc(-c3ccc(Cl)cc3)nc3ccccc23)cc1` [AMR.364] and `Fc1ccc(Nc2nc(-c3ccncc3)nc3ccccc23)cc1` [AMR.353] cannot be ordered by pIC50: < 3.70 for the first, < 3.70 for the second.

Going from `O=[N+]([O-])c1cccc(O)c1Nc1nc(-c2cccnc2)nc2ccccc12` [AMR.492] to `O=[N+]([O-])c1cccc(O)c1Nc1nc(-c2ccncc2)nc2ccccc12` [AMR.461], the pIC50 falls from 4.71 to 4.24 (0.47 log units).

Compared with `O=[N+]([O-])c1ccc(-c2nc(Nc3ccc4[nH]nnc4c3)c3ccccc3n2)cc1` [AMR.429], `Clc1ccc(-c2nc(Nc3ccc4[nH]nnc4c3)c3ccccc3n2)cc1` [AMR.3 71] is 0.32 log units lower in pIC50: 5.62 for the first, 5.30 for the second.

Going from `FC(F)(F)c1ccc(-c2nc(Nc3ccc4[nH]nnc4c3)c3ccccc3n2)cc1` [AMR.445] to `Cn1nnc2cc(Nc3nc(-c4ccc(C(F)(F)F)cc4)nc4ccccc34)ccc21` [AMR.446], the pIC50 rises from 4.27 to 4.55 (0.28 log units).

First: Cn1nnc2cc(Nc3nc(-c4ccncc4)nc4ccccc34)ccc21 [AMR.373]
Second: Cn1nc2ccc(Nc3nc(-c4ccncc4)nc4ccccc34)cc2n1 [AMR.464]
The pIC50 of the first is 0.75 log units higher: 4.76 for the first, 4.01 for the second.

`CCOC(=O)c1ccc(Nc2nc(-c3ccc(Cl)cc3)nc3ccccc23)cc1` [AMR.361] and `CCOC(=O)c1ccc(Nc2nc(-c3ccc(Cl)cc3Cl)nc3ccccc23)cc1` [AMR.390] cannot be ordered by pIC50: < 3.70 for the first, < 3.70 for the second.

Compared with `c1ccc2c(Nc3ccc4[nH]nnc4c3)ncnc2c1` [AMR.476], `c1ccc(-c2nc(Nc3ccc4[nH]nnc4c3)c3ccccc3n2)nc1` [AMR.422] is 1.63 log units higher in pIC50: 3.86 for the first, 5.49 for the second.

`CCOC(=O)c1ccc(Nc2cc(-c3cccnc3)nc3ccccc23)cc1` [AMR.504] and `Cn1nnc2cc(Nc3cc(-c4cccnc4)nc4ccccc34)ccc21` [AMR.505] are within 0.2 log units of each other in pIC50: 4.12 for the first, 4.22 for the second.

Compared with `CN(C)c1cccc(Nc2nc(-c3cccnc3)nc3ccccc23)c1` [AMR.379], `CN(C)c1cccc(Nc2nc(-c3ccncc3)nc3ccccc23)c1` [AMR.381] is 0.23 log units higher in pIC50: 3.66 for the first, 3.89 for the second.

`CNc1ccc([N+](=O)[O-])cc1Nc1nc(-c2ccncc2)nc2ccccc12` [AMR.466] and `O=[N+]([O-])c1cc(Nc2nc(-c3ccncc3)nc3ccccc23)ccc1O` [AMR.458] are within 0.2 log units of each other in pIC50: 5.33 for the first, 5.24 for the second.

First: O=C(O)c1ccc(Nc2nc(-c3ccncc3)nc3ccccc23)c(O)c1 [AMR.462]
Second: O=C(O)c1ccc(Nc2nc(-c3cccnc3)nc3ccccc23)c(O)c1 [AMR.493]
The pIC50 of the first is 0.30 log units higher: 4.82 for the first, 4.52 for the second.

First: Clc1ccc(-c2nc(Nc3ccc4[nH]nnc4c3)c3ccccc3n2)c(Cl)c1 [AMR.393]
Second: Cn1nnc2cc(Nc3nc(-c4ccc(Cl)cc4Cl)nc4ccccc34)ccc21 [AMR.401]
The pIC50 of the first is 1.32 log units higher: 5.70 for the first, 4.38 for the second. The first is the more potent here.

Compared with `Fc1ccc(Nc2nc(-c3ccc(Cl)cc3Cl)nc3ccccc23)cc1` [AMR.397], `CN(C)c1ccc(Nc2nc(-c3ccc(Cl)cc3Cl)nc3ccccc23)cc1` [AMR.402] is higher in pIC50: < 3.70 for the first, 4.57 for the second. The second is the more potent here.

`Fc1cc(Nc2nc(-c3cccnc3)nc3ccccc23)c(F)cc1Br` [AMR.483] and `Fc1cc(Nc2nc(-c3ccncc3)nc3ccccc23)c(F)cc1Br` [AMR.455] are within 0.2 log units of each other in pIC50: 4.79 for the first, 4.82 for the second.

First: CN(C)c1cccc(Nc2nc(-c3ccc(Cl)cc3Cl)nc3ccccc23)c1 [AMR.403]
Second: COc1ccc(Nc2nc(-c3ccc(Cl)cc3Cl)nc3ccccc23)cc1OC [AMR.395]
The pIC50 of the first is 0.47 log units higher: 4.39 for the first, 3.92 for the second. The first is the more potent here.

Going from `COc1ccc(Nc2nc(-c3ccc(Cl)cc3)nc3ccccc23)cc1OC` [AMR.363] to `COc1ccc(Nc2nc(-c3ccncc3)nc3ccccc23)cc1OC` [AMR.350], the pIC50 falls from 4.26 to < 3.70. The first is the more potent here.

Compared with `Cc1cccc(Nc2nc(-c3ccc(Cl)cc3)nc3ccccc23)c1C` [AMR.365], `Cc1cccc(Nc2nc(-c3ccncc3)nc3ccccc23)c1C` [AMR.354] is higher in pIC50: < 3.70 for the first, 3.78 for the second.

`Clc1ccc(Cl)c(Nc2nc(-c3cccnc3)nc3ccccc23)c1` [AMR.345] and `Fc1ccc(Cl)cc1Nc1nc(-c2cccnc2)nc2ccccc12` [AMR.427] are within 0.2 log units of each other in pIC50: 4.66 for the first, 4.78 for the second.

Going from `O=[N+]([O-])c1ccc(F)c(Nc2nc(-c3cccnc3)nc3ccccc23)c1` [AMR.335] to `O=[N+]([O-])c1ccc(O)c(Nc2nc(-c3cccnc3)nc3ccccc23)c1` [AMR.481], the pIC50 rises from 5.19 to 5.68 (0.49 log units).

First: Cc1ccnc(Nc2nc(-c3ccncc3)nc3ccccc23)c1 [AMR.355]
Second: Fc1ccc(Cl)cc1Nc1nc(-c2ccncc2)nc2ccccc12 [AMR.451]
The pIC50 of the first is 0.22 log units lower: 4.60 for the first, 4.82 for the second. The second is the more potent here.

First: Cc1cccc(Nc2nc(-c3cccnc3)nc3ccccc23)c1C [AMR.334]
Second: CN(C)c1ccc(Nc2nc(-c3cccnc3)nc3ccccc23)cc1 [AMR.378]
The pIC50 of the first is higher: 4.36 for the first, < 3.70 for the second.

`c1ccc2c(Nc3ccc(-n4ccnc4)cc3)nc(-c3ccncc3)nc2c1` [AMR.359] and `c1cncc(-c2nc(Nc3ccc(-n4ccnc4)cc3)c3ccccc3n2)c1` [AMR.341] are within 0.2 log units of each other in pIC50: 4.43 for the first, 4.50 for the second.

Going from `CN(c1ccc2c(c1)nnn2C)c1nc(-c2ccncc2)nc2ccccc12` [AMR.471] to `Cn1nnc2cc(Nc3nc(-c4cccnc4)nc4ccccc34)ccc21` [AMR.372], the pIC50 rises from < 3.70 to 5.19. The second is the more potent here.

`c1ccc2c(NCCCn3ccnc3)nc(-c3ccncc3)nc2c1` [AMR.347] and `c1cncc(-c2nc(NCCCn3ccnc3)c3ccccc3n2)c1` [AMR.322] cannot be ordered by pIC50: < 3.70 for the first, < 3.70 for the second.

`Cc1ccc(S(=O)(=O)NNc2nc(-c3ccc(Cl)cc3)nc3ccccc23)cc1` [AMR.370] and `Cc1ccc(S(=O)(=O)NNc2nc(-c3ccccc3Cl)nc3ccccc23)cc1` [AMR.400] cannot be ordered by pIC50: < 3.70 for the first, < 3.70 for the second.

`Clc1ccc(-c2nc(NCCCn3ccnc3)c3ccccc3n2)c(Cl)c1` [AMR.392] and `Clc1ccc(-c2nc(NCCCn3ccnc3)c3ccccc3n2)cc1` [AMR.367] cannot be ordered by pIC50: < 3.70 for the first, < 3.70 for the second.

Going from `Cn1nnc2cc(Nc3nc(-c4ccc(Cl)cc4)nc4ccccc34)ccc21` [AMR.374] to `Cn1nnc2cc(Nc3nc(-c4ccc([N+](=O)[O-])cc4)nc4ccccc34)ccc21` [AMR.437], the pIC50 falls from 5.18 to 4.29 (0.89 log units).

Compared with `c1ccc2c(Nc3ccc4[nH]nnc4c3)nc(-c3ccncc3)nc2c1` [AMR.358], `O=[N+]([O-])c1cc(Nc2nc(-c3ccncc3)nc3ccccc23)ccc1F` [AMR.449] is 0.24 log units higher in pIC50: 5.30 for the first, 5.54 for the second.

Compared with `Fc1ccc(Nc2nc(-c3cccnc3)nc3ccccc23)cc1` [AMR.331], `COc1ccc(Nc2nc(-c3cccnc3)nc3ccccc23)cc1OC` [AMR.328] is 0.39 log units lower in pIC50: 4.35 for the first, 3.96 for the second. The first is the more potent here.

Going from `Clc1ccc(-c2nc(Nc3cc(Cl)ccc3Cl)c3ccccc3n2)cc1` [AMR.362] to `Clc1ccc(Cl)c(Nc2nc(-c3ccncc3)nc3ccccc23)c1` [AMR.352], the pIC50 rises from < 3.70 to 3.72.

`O=[N+]([O-])c1ccc(F)c(Nc2nc(-c3ccc(C(F)(F)F)cc3)nc3ccccc23)c1` [AMR.444] and `O=[N+]([O-])c1ccc(F)c(Nc2nc(-c3ccc(Cl)cc3)nc3ccccc23)c1` [AMR.366] cannot be ordered by pIC50: < 3.70 for the first, < 3.70 for the second.

`CN(C)c1ccc(-c2nc(Nc3cc([N+](=O)[O-])ccc3F)c3ccccc3n2)cc1` [AMR.511] and `CN(C)c1cccc(-c2nc(Nc3cc([N+](=O)[O-])ccc3F)c3ccccc3n2)c1` [AMR.508] cannot be ordered by pIC50: < 3.70 for the first, < 3.70 for the second.

First: O=[N+]([O-])c1ccc(-c2nc(Nc3cc([N+](=O)[O-])ccc3F)c3ccccc3n2)cc1 [AMR.428]
Second: O=[N+]([O-])c1ccc(F)c(Nc2nc(-c3ccc(Cl)cc3Cl)nc3ccccc23)c1 [AMR.391]
The pIC50 of the first is higher: 3.94 for the first, < 3.70 for the second. The first is the more potent here.

Going from `CN(C)c1ccc(Nc2nc(-c3ccncc3)nc3ccccc23)cc1` [AMR.351] to `Cn1nnc2cc(Nc3nc(-c4ccccn4)nc4ccccc34)ccc21` [AMR.421], the pIC50 falls from 4.81 to 4.47 (0.34 log units). The first is the more potent here.

With `Clc1ccc(-c2nc(Nc3cc(Cl)ccc3Cl)c3ccccc3n2)c(Cl)c1` [AMR.396] the pIC50 was < 3.70.

From EP2769723A1, “Compounds for use in inhibiting HIV capsid assembly” (priority 2013, dated 2014)
